Laboratory results reported in ChEMBL document CHEMBL5252541, “Repurposing antipsychotic drugs into antifungal agents: Synergistic combinations of azoles and bromperidol derivatives in the treatment of various fungal infections” (Eur J Med Chem, 2017).
The source made the active and inactive calls. The rule behind the calls is not given here.

Experiments:
BEAS-2B [1] = test: Cytotoxicity against human BEAS-2B cells assessed as cell survival up to 4 microg/ml by XTT assay; type: toxicity, cell-based; conditions: dose < 4 µg/ml
Candida albicans [2] = test: Partial synergistic antifungal activity against Candida albicans ATCC 10231 assessed as fractional inhibitory concentration index measured for 72 hrs in presence of itraconazole; type: functional
HEK293 [3] = test: Cytotoxicity against HEK293 cells assessed as cell survival up to 4 microg/ml by XTT assay; type: toxicity, cell-based; conditions: human, dose < 4 µg/ml
Candida albicans [4] = test: Partial synergistic antifungal activity against Candida albicans ATCC MYA-2310 assessed as fractional inhibitory concentration index measured for 72 hrs in presence of posaconazole; type: functional
Candida albicans [5] = test: Synergistic antifungal activity against Candida albicans ATCC 10231 assessed as compound MIC measured after 48 hrs in presence of voriconazole by checkboard based microplate reader analysis; type: functional
BEAS-2B [6] = test: Cytotoxicity against human BEAS-2B cells assessed as cell survival at 8 microg/ml by XTT assay; type: toxicity, cell-based; conditions: dose 8 µg/ml
[7] = Cytotoxicity against HEK293 cells assessed as cell survival by XTT assay; type: toxicity, cell-based; conditions: human, read-out: Activity
Candida albicans [8] = test: Fungicidal activity against Candida albicans ATCC 64124 assessed as reduction in colony forming units at 2 to 8 times MIC incubated after 6 hrs in presence of posaconazole by time kill assay; type: functional, organism-based
Candida albicans [9] = test: Synergistic antifungal activity against Candida albicans ATCC 64124 assessed as compound MIC measured after 48 hrs in presence of itraconazole by checkboard based microplate reader analysis; type: functional
[10] = Cytotoxicity against human BEAS-2B cells assessed as cell survival at 8 microg/ml in presence of posaconazole by XTT assay; type: toxicity, cell-based; conditions: at 8 µg/mL, read-out: Activity
Candida albicans [11] = test: Antifungal activity against Candida albicans ATCC 90819 measured after 48 hrs by broth microdilution analysis; type: functional
[12] = Cytotoxicity against human HEK293 cells assessed as cell survival at 16 microg/ml in presence of posaconazole by XTT assay; type: toxicity, cell-based; conditions: at 16 µg/mL
Candida albicans [13] = test: Antifungal activity against Candida albicans ATCC MYA-2310 measured after 48 hrs by broth microdilution analysis; type: functional
Candida albicans [14] = test: Synergistic antifungal activity against Candida albicans ATCC 10231 assessed as compound MIC measured after 48 hrs in presence of fluconazole by checkboard based microplate reader analysis; type: functional
Candida albicans [15] = test: Synergistic antifungal activity against Candida albicans ATCC 10231 assessed as compound MIC measured after 48 hrs in presence of itraconazole by checkboard based microplate reader analysis; type: functional
Candida albicans [16] = test: Potency index, ratio of posaconazole MIC to test compound MIC for antifungal activity against Candida albicans ATCC 10231 measured after 48 hrs by broth microdilution analysis; type: functional
Nakaseomyces glabratus = test: Antifungal activity against Candida glabrata ATCC 2001 measured after 48 hrs by broth microdilution analysis; type: functional
[17] = Cytotoxicity against mouse J774.A1 cells assessed as cell survival at 64 microg/ml by XTT assay; type: toxicity, cell-based; conditions: at 64 µg/mL, read-out: Activity
HEK293 [18] = test: Cytotoxicity against human HEK293 cells assessed as cell survival at 32 microg/ml in presence of voriconazole by XTT assay
Candida albicans [19] = test: Synergistic antifungal activity against Candida albicans ATCC 64124 assessed as fractional inhibitory concentration index measured for 72 hrs in presence of posaconazole; type: functional
Candida albicans [20] = test: Partial synergistic antifungal activity against Candida albicans ATCC MYA-1003 assessed as fractional inhibitory concentration index measured for 72 hrs in presence of voriconazole; type: functional
[21] = Cytotoxicity against mouse J774.A1 cells assessed as cell survival by XTT assay; type: toxicity, cell-based; conditions: read-out: Activity
Candida albicans [22] = test: Additive antifungal activity against Candida albicans ATCC 64124 assessed as fractional inhibitory concentration index measured for 72 hrs in presence of fluconazole; type: functional
J774.A1 = test: Cytotoxicity against mouse J774.A1 cells assessed as cell survival at 16 microg/ml in presence of voriconazole by XTT assay; type: toxicity, cell-based; conditions: dose 16 µg/ml

- MIC (Candida albicans [5]): 32 µg/mL
- MIC (Candida albicans [9]): 64 µg/mL
- MIC (Candida albicans [11]): > 128 µg/mL
- MIC (Candida albicans [13]): > 128 µg/mL
- MIC (Candida albicans [14]): 64 µg/mL
- MIC (Candida albicans [15]): 64 µg/mL
- MIC (Nakaseomyces glabratus): > 128 µg/mL
SMILES: O=C(CCCN1CCC(O)(c2ccc(Br)cc2)CC1)c1ccc(F)cc1 [BROMPERIDOL]
- Activity (BEAS-2B [1]): Non-Toxic
- fractional inhibitory concentration index (FICI) (Candida albicans [2]): 0.75
- Activity (HEK293 [3]): Non-Toxic
- fractional inhibitory concentration index (FICI) (Candida albicans [4]): 0.52
- Activity (BEAS-2B [6]): Non-Toxic
- viability [7]: > 100%
- Activity (Candida albicans [8]): Active
- viability at 8 microg/ml [10]: 71%
- viability at 16 microg/ml [12]: 40%
- Ratio (Candida albicans [16]): 8
- viability at 64 microg/ml [17]: 30%
- Activity (HEK293 [18]): Non-Toxic
- fractional inhibitory concentration index (FICI) (Candida albicans [19]): 0.16
- fractional inhibitory concentration index (FICI) (Candida albicans [20]): 0.52
- viability [21]: > 100%
- fractional inhibitory concentration index (FICI) (Candida albicans [22]): 1.5
- Activity (J774.A1): Non-Toxic
